Article PMC11237694, “Novel pentafluorosulfanyl-containing triclocarban analogs selectively kill Gram-positive bacteria” (Microbiology Spectrum, 2024)
≈ marks a conversion by molar mass, not a printed value.

Experiments:
Gram-negative pathogens = test system: Gram-negative pathogens; set-up: method as in PMID 12534815; conditions: cited from earlier work
Gram-positive bacteria = test system: Gram-positive bacteria; set-up: method as in PMID 12534815; conditions: cited from earlier work
MRSA ATCC 33591 = experiment: Planktonic susceptibility (MIC/MBC), 96-well broth microdilution; assay type: cell-based, methicillin-resistant S. aureus; conditions: Staphylococcus aureus, MRSA reference strain; for MIC: planktonic, overnight 37°C in MHB
Method: (§1) All bacterial strains subjected to testing had been stored at −70°C prior to the experiment. The experiment commenced by streaking small amounts of the frozen bacterial samples onto Muller-Hinton agar (MHA) culture medium (BD Bacto, Oxoid, Basingstoke, UK Cat# X296B) and allowing for overnight incubation. Bacteria were re-cultured on MHA plates as required to confirm colony morphology and lack of contamination. Strains tested were P. aeruginosa ATCC 27853, E. coli ATCC 25922, Staphylococcus aureus ATCC 25923, MRSA ATCC 33591, S. epidermidis ATCC 12228, Klebsiella pneumoniae ATCC, P. mirabilis ATCC 35659, and 10 clinical isolates of MRSA from Foothills Hospital, Calgary, Canada. To prepare for susceptibility testing, a protocol modified from Lemire et al was used ([28]). MHB was swab-inoculated from MHA colonies and shake-incubated until turbid. Dilution of the broth with 0.9% saline was performed as necessary to match a 1.0 McFarland standard.
(§2) MIC and MBC assessments were conducted on all bacterial strains using 96-well microtiter plates. To prepare the wells for bacteria, serial dilutions of the antibacterial agents were carried out along the rows of two microtiter plates. The antibacterials were 2-fold diluted with Mueller-Hinton broth (MHB) in each column, reaching a volume of 75 µL. The 1.0 McFarland standard was diluted 15-fold in MHB, and 75 µL of inoculum was added to the wells treated with antibacterials, resulting in a total volume of 150 µL. The microtiter plates were covered and then shake-incubated overnight at 150 rpm and 37°C. MIC was determined based on visible bacterial growth. […] MBC was determined by transferring 3 µL of culture from all MIC microtiter plate wells to 147 µL of Mueller-Hinton broth in fresh plates. These plates were shake-incubated overnight at 150 rpm and 37°C, and bacterial growth was visually inspected.

[1] = test system: S. epidermidis ATCC 12228; experiment: as above; assay type: cell-based, Staphylococcus epidermidis; conditions: Staphylococcus epidermidis; for MBC: ATCC12228; for MIC: ATCC12228, planktonic, overnight 37°C in MHB
Method: as §1
(§3) MIC and MBC assessments were conducted on all bacterial strains using 96-well microtiter plates. To prepare the wells for bacteria, serial dilutions of the antibacterial agents were carried out along the rows of two microtiter plates. The antibacterials were 2-fold diluted with Mueller-Hinton broth (MHB) in each column, reaching a volume of 75 µL. The 1.0 McFarland standard was diluted 15-fold in MHB, and 75 µL of inoculum was added to the wells treated with antibacterials, resulting in a total volume of 150 µL. The microtiter plates were covered and then shake-incubated overnight at 150 rpm and 37°C. MIC was determined based on visible bacterial growth. In cases of antibacterial opacity or ambiguous results, streaking of well cultures on MHA, overnight incubation, and subsequent comparison with controls were performed. MBC was determined by transferring 3 µL of culture from all MIC microtiter plate wells to 147 µL of Mueller-Hinton broth in fresh plates. These plates were shake-incubated overnight at 150 rpm and 37°C, and bacterial growth was visually inspected.

[2] = test system: Klebsiella pneumoniae ATCC; experiment: as above; assay type: cell-based; conditions: K. pneumonia; for MIC: planktonic, overnight 37°C in MHB
Method: as §1, §3

P. mirabilis ATCC 35659 = experiment: as above; assay type: cell-based; conditions: Proteus mirabilis; for MBC: ATCC35659; for MIC: ATCC35659, planktonic, overnight 37°C in MHB
Method: as §1, §3

[3] = test system: Staphylococcus aureus ATCC 25923; experiment: as above; assay type: cell-based; conditions: Staphylococcus aureus, ATCC25923, S. aureus; for MIC: planktonic, overnight 37°C in MHB
Method: as §1, §3

[4] = test system: 10 clinical isolates of MRSA from Foothills Hospital, Calgary; experiment: Planktonic susceptibility (MIC/MBC) of MRSA clinical isolates; assay type: cell-based, methicillin-resistant S. aureus; conditions: Staphylococcus aureus
Method: as §1, §2

P. aeruginosa ATCC 27853 = experiment: Planktonic susceptibility (MIC/MBC), 96-well broth microdilution; assay type: cell-based; conditions: Pseudomonas aeruginosa; for MBC: ATCC27853; for MIC: ATCC27853, planktonic, overnight 37°C in MHB
Method: as §1, §3

E. coli ATCC 25922 = experiment: as above; assay type: cell-based; conditions: Escherichia coli; for MBC: ATCC25922; for MIC: ATCC25922, planktonic, overnight 37°C in MHB
Method: as §1, §3

| Structure (SMILES) | MBC [1] [µM] | MIC [1] [µM] | MBC [2] [µM] | MIC [2] [µM] | MBC (P. mirabilis ATCC 35659) [µM] | MIC (P. mirabilis ATCC 35659) [µM] | MBC [3] [µM] | MIC [3] [µM] | MBC ([4]; MRSA #1 clinical isolate) [µM] | MIC ([4]; MRSA #1 clinical isolate) [µM] | MBC ([4]; MRSA #2 clinical isolate) [µM] | MIC ([4]; MRSA #2 clinical isolate) [µM] | MBC ([4]; MRSA #3 clinical isolate) [µM] | MIC ([4]; MRSA #3 clinical isolate) [µM] | MBC ([4]; MRSA #4 clinical isolate) [µM] | MIC ([4]; MRSA #4 clinical isolate) [µM] | MBC ([4]; MRSA #5 clinical isolate) [µM] | MIC ([4]; MRSA #5 clinical isolate) [µM] | MBC ([4]; MRSA #6 clinical isolate) [µM] | MIC ([4]; MRSA #6 clinical isolate) [µM] | also measured |
| --- | --- | --- | --- | --- | --- | --- | --- | --- | --- | --- | --- | --- | --- | --- | --- | --- | --- | --- | --- | --- | --- |
| O=C(Nc1ccc(Cl)cc1)Nc1ccc(Cl)c(C(F)(F)F)c1 [cloflucarban, 3-trifluoromethyl-4,4′-dichlorocarbanilide] | – | – | – | – | – | – | – | – | – | – | – | – | – | – | – | – | – | – | – | – | activity against Gram-negative pathogens (Gram-negative pathogens): no activity; antibacterial action against Gram-positive bacteria (Gram-positive bacteria): antibacterial action |
| O=C(Nc1ccc(Cl)cc1)Nc1ccc(Cl)c(Cl)c1 [TCC, triclocarban] | – | – | – | – | – | – | – | – | – | – | – | – | – | – | – | – | – | – | – | – | activity against Gram-negative pathogens (Gram-negative pathogens): no activity; antibacterial action against Gram-positive bacteria (Gram-positive bacteria): antibacterial action |
| O=C(Nc1ccc(Cl)c(C(F)(F)F)c1)Nc1cc(S(F)(F)(F)(F)F)ccc1Cl [EBP-37, 3-(4-chloro-3-(trifluoromethyl)phenyl)-1-(2-chloro-5-pentafluoro-λ^6-sulfanyl)urea] | 40 (≈ 19 µg/mL) | 8 (≈ 3.8 µg/mL) | > 5000 | > 5000 | 625 (≈ 297 µg/mL) | 625 (≈ 297 µg/mL) | 4900 (≈ 2330 µg/mL) | 1.2 (≈ 0.57 µg/mL) | 1200 (≈ 570 µg/mL) | 10 (≈ 4.75 µg/mL) | 10 (≈ 4.75 µg/mL) | < 2 | 600 (≈ 285 µg/mL) | 80 (≈ 38 µg/mL) | 10 (≈ 4.75 µg/mL) | < 2 | 10 (≈ 4.75 µg/mL) | 10 (≈ 4.75 µg/mL) | < 2 | < 2 | MBC (MRSA ATCC 33591): 40 µM (≈ 19 µg/mL); MIC (MRSA ATCC 33591): 8 µM (≈ 3.8 µg/mL); MBC ([4]; MRSA #7 clinical isolate): 40 µM (≈ 19 µg/mL); MIC ([4]; MRSA #7 clinical isolate): 10 µM (≈ 4.75 µg/mL); MBC ([4]; MRSA #8 clinical isolate): 10 µM (≈ 4.75 µg/mL); MIC ([4]; MRSA #8 clinical isolate): < 2 µM; MBC ([4]; MRSA #9 clinical isolate): 10 µM (≈ 4.75 µg/mL); MIC ([4]; MRSA #9 clinical isolate): 5 µM (≈ 2.38 µg/mL); MBC ([4]; MRSA #10 clinical isolate): 10 µM (≈ 4.75 µg/mL); MIC ([4]; MRSA #10 clinical isolate): < 2 µM |
| O=C(Nc1ccc(Cl)c(C(F)(F)F)c1)Nc1ccc(Cl)c(C(F)(F)F)c1 [EBP-34, 1,3-di(4-chloro-3-(trifluoromethyl)phenyl)urea] | 10 (≈ 4.17 µg/mL) | 0.2 (≈ 0.0834 µg/mL) | > 5000 | > 5000 | 625 (≈ 261 µg/mL) | 625 (≈ 261 µg/mL) | 10 (≈ 4.17 µg/mL) | 3.8 (≈ 1.59 µg/mL) | < 2 | 600 (≈ 250 µg/mL) | < 2 | < 2 | 80 (≈ 33.4 µg/mL) | 80 (≈ 33.4 µg/mL) | < 2 | < 2 | 10 (≈ 4.17 µg/mL) | 10 (≈ 4.17 µg/mL) | 10 (≈ 4.17 µg/mL) | 10 (≈ 4.17 µg/mL) | MBC (MRSA ATCC 33591): 61 µM (≈ 25.4 µg/mL); MIC (MRSA ATCC 33591): 1.9 µM (≈ 0.793 µg/mL); MBC ([4]; MRSA #7 clinical isolate): 10 µM (≈ 4.17 µg/mL); MIC ([4]; MRSA #7 clinical isolate): < 2 µM; MBC ([4]; MRSA #8 clinical isolate): 5 µM (≈ 2.09 µg/mL); MIC ([4]; MRSA #8 clinical isolate): 5 µM (≈ 2.09 µg/mL); MBC ([4]; MRSA #9 clinical isolate): < 2 µM; MIC ([4]; MRSA #9 clinical isolate): < 2 µM; MBC ([4]; MRSA #10 clinical isolate): 10 µM (≈ 4.17 µg/mL); MIC ([4]; MRSA #10 clinical isolate): < 2 µM |
| CNC(C)C1CCC(N)C(OC2C(N)CC(N)C(OC3OCC(C)(O)C(NC)C3O)C2O)O1 (stereo not drawn) [Gen, Gentamicin, reference compound] | 300 (≈ 143 µg/mL) | 300 (≈ 143 µg/mL) | 50 (≈ 23.9 µg/mL) | 1 (≈ 0.478 µg/mL) | 50 (≈ 23.9 µg/mL) | 1 (≈ 0.478 µg/mL) | 40 (≈ 19.1 µg/mL) | 40 (≈ 19.1 µg/mL) | 1600 (≈ 764 µg/mL) | 100 (≈ 47.8 µg/mL) | 200 (≈ 95.5 µg/mL) | 50 (≈ 23.9 µg/mL) | 50 (≈ 23.9 µg/mL) | 50 (≈ 23.9 µg/mL) | 50 (≈ 23.9 µg/mL) | 50 (≈ 23.9 µg/mL) | 6250 (≈ 2990 µg/mL) | 800 (≈ 382 µg/mL) | 25000 (≈ 11900 µg/mL) | 3000 (≈ 1430 µg/mL) | MBC (P. aeruginosa ATCC 27853): 1200 µM (≈ 573 µg/mL); MIC (P. aeruginosa ATCC 27853): 12 µM (≈ 5.73 µg/mL); MBC (E. coli ATCC 25922): 10 µM (≈ 4.78 µg/mL); MIC (E. coli ATCC 25922): 10 µM (≈ 4.78 µg/mL); MBC ([4]; MRSA #7 clinical isolate): 1600 µM (≈ 764 µg/mL); MIC ([4]; MRSA #7 clinical isolate): 50 µM (≈ 23.9 µg/mL); MBC ([4]; MRSA #8 clinical isolate): 50 µM (≈ 23.9 µg/mL); MIC ([4]; MRSA #8 clinical isolate): 50 µM (≈ 23.9 µg/mL); MBC ([4]; MRSA #9 clinical isolate): 50 µM (≈ 23.9 µg/mL); MIC ([4]; MRSA #9 clinical isolate): 50 µM (≈ 23.9 µg/mL); MBC ([4]; MRSA #10 clinical isolate): 50 µM (≈ 23.9 µg/mL); MIC ([4]; MRSA #10 clinical isolate): 50 µM (≈ 23.9 µg/mL) |
| O=C(O)c1cn(C2CC2)c2cc(N3CCNCC3)c(F)cc2c1=O [Cip, Ciprofloxacin, reference compound] | 1200 (≈ 398 µg/mL) | 1200 (≈ 398 µg/mL) | 500 (≈ 166 µg/mL) | 10 (≈ 3.31 µg/mL) | 800 (≈ 265 µg/mL) | 20 (≈ 6.63 µg/mL) | 80 (≈ 26.5 µg/mL) | 80 (≈ 26.5 µg/mL) | – | – | – | – | – | – | – | – | – | – | – | – | MBC (P. aeruginosa ATCC 27853): 2400 µM (≈ 795 µg/mL); MIC (P. aeruginosa ATCC 27853): 61 µM (≈ 20.2 µg/mL); MBC (E. coli ATCC 25922): 2 µM (≈ 0.663 µg/mL); MIC (E. coli ATCC 25922): 2 µM (≈ 0.663 µg/mL) |
